From patent US9266815B2, “Anti-metastatic agents predicated upon polyamine macrocyclic conjugates” (University of Central Florida Research Foundation, Inc., priority 2012, dated 2016)
Entries after “also recorded” stand apart in the source; their conditions may differ.

Tests used:
[1] = system: human pancreatic cancer L3.6p1 cells; assay: Orthotopic mouse model, liver micrometastases; type: in vivo
Experimental: In one embodiment, the cancer is breast cancer. In another embodiment, the cancer is pancreatic cancer. […] The control was saline solution. The respective drugs (44a and 45) were dosed at their respective maximum tolerated dose (MTD).

[2] = system: L3.6pl cells; assay: Wound healing assay (cell migration); type: cell-based, human; settings: for anti-migration ability relative to parent 44a (in words): dosed at 0.6 μM
Experimental: A wound healing assay was employed to evaluate the anti-migration properties of compounds 44a-b, 46a-b, and 47a-b in L3.6p1 cells. This involved growing a monolayer of L3.6p1 cells and then scraping the monolayer with a sterile pipet tip to create a cell free zone in the middle of the well. The experiment was run in 96-well plate format. Wound healing was measured by time-course imaging of each well using a computer-controlled microscope with an x,y,z stage which allowed for reproducible imaging over time. Each drug was evaluated for its dose-dependent inhibition of cell migration. Each compound was evaluated at its own MTD in order to avoid cytotoxic effects which are well known to bias migration studies.^37a In addition, each compound was also tested at the MTD of 44a (Motu33) in order to directly compare the potency of these compounds at the same concentration.
Taking pictures of each wound needed to be done under a 2.5× objective in order to view ˜95% of each well. […] This problem was alleviated through the use of the ImageJ software.^47 This software allowed for enhancing the contrast between areas which were occupied by cells versus areas devoid of cells. In this regard, the software was able to accurately define the edges of each boundary. These capabilities then allowed for accurate area calculations which are seen in Table 3.
Anti-migratory properties were assayed in 96-well microtiter plates (Costar 3599, Corning, N.Y., USA). A stock suspension of L3.6p1 cells (5.5×10^5 cells/mL) was prepared. L3.6p1 cells (90 μL of stock/well) were plated and allowed to grow to a confluent monolayer (48 h). Each well was then scraped with a 1 μL sterile pipet tip, photographed with a Zeiss Stemi Microscope (2.5× objective) (time=0), and then allowed to incubate for an additional 48 h period (time=48 h). Over this 48 h period, the untreated control migrated to fill 50% of the original wound. At time zero, the respective drug solutions (10 μL) were added and cell migration monitored after 48 h incubation at 37° C. with 5% CO2. After drug exposure for 48 h, respective time=48 h photographs were taken by the Zeiss Stemi Microscope. These pictures (time=0 and time=48 h) were then compared and analyzed through the use of ImageJ software^47 by calculating the average area invaded by L3.6p1 cells.

[3] = system: CHO cells; assay: Cytotoxicity (MTS cell growth) in CHO cells; type: cell-based, Chinese hamster; settings: 48 h at 37° C., 1 mM AG 24 h prior to drug addition, triplicate
From the text: (§1) CHO cells were chosen along with a mutant cell line (CHO-MG*) to comment on how the synthetic conjugates gain access to the cells.^2c-e, 6 As discussed earlier, the CHO-MG* cell line is polyamine-transport deficient and represents a model for alternative modes of entry (other than PTS) including passive diffusion or use of another transporter. The CHO cell line on the other hand, represents cells with high polyamine transport activity.^7b, 10c A comparison of toxicity in these two CHO cell lines allowed for a screen that would detect selective use of the polyamine transporter. High utilization of the PTS would be very toxic to CHO cells. However, the CHO-MG* cells should be less sensitive to drugs which target the PTS.^2c-e, 6 Ultimately, a CHO-MG*/CHO IC50 ratio was determined to assess PTS selectivity. A high IC50 ratio (>>2) would be observed for PTS selective compounds.
(§2) CHO and CHO-MG* cells were grown in RPMI 1640 medium supplemented with 10% fetal calf serum and 1% penicillin/streptomycin. Note: the media must contain L-proline (2 μg/mL) for proper growth of the CHO-MG* cells. L3.6p1 cells were grown in RPMI 1640 medium supplemented with 10% FBS and 1% penicillin/streptomycin. All cells were grown at 37° C. under a humidified 5% CO2 atmosphere Aminoguanidine (1 mM for CHO and CHO-MG*, and 250 μM for L3.6p1) was added to the growth medium to prevent oxidation of the drugs by the enzyme (bovine serum amine oxidase) present in calf serum. Cells in early to mid-log phase growth were used.
(§3) Cell growth was assayed in sterile 96-well microtiter plates (Costar 3599, Corning, N.Y., USA). CHO and CHO-MG* cells were plated at 10,000 cells/mL. L3.6p1 cells were plated at 5,000 cells/mL. Drug solutions (10 μL per well) of appropriate concentration were added after an overnight incubation for each CHO cell line (90 μL of cell suspension). After exposure to the drug for 48 h, cell growth was determined by measuring formazan formation from 3-(4,5-dimethylthiazol-2-yl)-5-(3-carboxymethoxyphenyl)-2-(4-sulphenyl)-2H-tetrazolium, inner salt (MTS) using a SynergyMx BioTek microplate reader for absorbance ([…]) measurements.^23 A 4 h incubation period was used for the MTS assay in accordance with the manufacturer's protocol.^23

[4] = system: MDA-MB-231 cells; settings: cited from earlier work
[5] = system: yeast cells; settings: 60 μM; cited from earlier work
[6] = system: L3.6pl cells; assay: Cytotoxicity IC50 and MTD determination in L3.6pl cells; type: cell-based; settings: for IC50 / L3.6pl MTD: 48 h at 37° C.; for IC50: 250 μM AG 24 h prior to drug addition; for L3.6pl MTD: maximum tolerated dose, 250 μM AG; for MTD higher than 0.6 μM (MTD of 44a): relative to parent 44a
Experimental: The MTD (Maximum tolerated dose) was determined for each of these compounds (Table III-2).
Note: the media must contain L-proline (2 μg/mL) for proper growth of the CHO-MG* cells. […] Cells in early to mid-log phase growth were used.
CHO and CHO-MG* cells were plated at 10,000 cells/mL. L3.6p1 cells were plated at 5,000 cells/mL. Drug solutions (10 μL per well) of appropriate concentration were added after an overnight incubation for each CHO cell line (90 μL of cell suspension).

[7] = system: MDA-231 breast carcinoma cells; settings: cited from earlier work
[8] = system: original CHO-MG line and CHO; settings: reported earlier (ref 2f); cited from earlier work
[9] = system: CHO-MG* cells; assay: Cytotoxicity (MTS cell growth) in CHO-MG* cells; type: cell-based, Chinese hamster; settings: for IC50: 48 h at 37° C., 1 mM AG 24 h prior to drug addition, triplicate
From the text: as §1, §2, §3

[10] = system: pancreatic tumor (L3.6p1 cells); assay: Mouse pancreatic tumor model, tumor size; type: in vivo; settings: for tumor volume size: versus untreated control, preliminary data not shown
From the text: Further, the present inventors have found a dramatic increase in the therapeutic window available to these new agents relative to the parent compound 44a. These large carbocycles (e.g., the macrocyclic core) and carbocycle-alkyl groups (e.g., cyclopentadecyl-CH2— is preferred) represent a new N-substituent which imparts the unique properties of anti-migration activity and lower toxicity. Advantageously, the compounds described herein may be administered alone or in combination with known and/or new therapies (e.g., other chemotherapeutic agents or radiation) to help treat or prevent the spread of primary tumors and allow time for the intervention (e.g., other chemotherapeutic) to work on the primary tumor.
Thus, this represents an exciting unexpected discovery that not only can compounds of the present invention reduce metastasis, they reduce the tumor itself.

[11] = Homo sapiens, 0.6 μM, 48 h, 250 μM AG
[12] = 2 μM (MTD of the conjugate), 48 h

Row | Structure (SMILES) | % Cell Migration ([2]; 0.6 μM, 48 h, 250 μM AG) | inhibition at 0.6 µM [2, 11] [%] | IC50 ([3]; Cricetulus griseus, CHO) [µM] | IC50 ([6]; Homo sapiens, L3.6pl) [µM] | L3.6pl MTD [6] [µM] | IC50 ([9]; Cricetulus griseus, CHO-MG) [µM] | tumor volume size [10] | anti-migration property (in words) [2] | % Cell Migration [2, 12] | anti-migration ability relative to parent 44a (in words) [2] | MTD higher than 0.6 μM (MTD of 44a) ([6]; L3.6pl) [fold] | further results
1 | CCN(CCCNCCCN)Cc1c2ccccc2cc2ccccc12 [AntNEt33] |  |  |  |  |  |  |  |  |  |  |  | anti-metastatic properties in vivo ([1]; compared with dihydromotuporamine C): failed to mimic the anti-metastatic properties
2 | NCCCNCCCN1CCCCCCCCCCCCCC1 [Compound 44a, dihydromotuporamine C, reference compound] | 37.8 (±3.3) % | 20.3 | 2.9 | 0.99 | 0.6 | 2.96 | dramatic decreases in tumor volume size |  |  |  |  | anti-invasive properties (in words) [4]: good anti-invasive properties; growth of yeast cells [5]: fully inhibit the growth; degree of metastasis (liver micrometastases per slide) ([1]; dosed at MTD, control saline, FIG. 7): effective in reducing the degree of metastasis; cytotoxicity (in words) [7]: highly cytotoxic; IC50 ratio in the original CHO-MG line and CHO [8]: 1; CHO-MG*/CHO IC50 ratio ([9]; measure of PTS selectivity): 1
3 | NCCCNCCCNC1CCCCCCCCCCCCCC1 [Compound 46a, N(3-Aminopropyl)-N3-cyclopentadecylpropane-1,3-diamine] | 38.2 (±2.5) % |  |  |  | 2.0 |  |  | have this anti-migration property | 31.8 (±0.1) % |  |  | % Cell Migration Inhibition ([2]; 0.6 μM, 48 h, 250 μM AG): 19.3 (±1.3) %; % Cell Migration Inhibition [2, 12]: 32.9 (±0.1) %; IC50 [3]: 2.84 µM; IC50 [6]: 2.81 µM; IC50 [9]: 5.95 µM
4 | NCCCCNCCCCNC1CCCCCCCCCCCCCC1 [Compound 46b, N^1-(4-Aminobutyl)-N^4-cyclopentadecylbutane-1,4-diamine] | 32.5 (±4.3) % | 31.4 | 4.53 | 2.82 | 2.0 | 5.18 |  | have this anti-migration property | 31.6 (±0.5) % |  |  | inhibition at 2 µM ([2]; Homo sapiens, L3.6pl, 2 μM (MTD of the conjugate), 48 h): 33.4%
5 | NCCCNCCCNCC1CCCCCCCCCCCCCC1 [Compound 47a, N^1-(3-aminopropyl)-N^3-(cyclopentadecylmethyl)propane-1,3-diamine] | 29.2 (±3.2) % | 38.4 | 82.9 | 89.4 | 80 | 87.3 | dramatic decreases in tumor volume size | have this anti-migration property |  | highest inhibition; also recorded: dramatic increase in anti-migration ability; also recorded: significant improvement in anti-migration ability | > 130 | % Cell Migration ([2]; 80 μM (MTD of the conjugate), 48 h): 26.2 (±1.3) %; inhibition at 80 µM ([2]; Homo sapiens, L3.6pl, 80 μM (MTD of the conjugate), 48 h): 44.8%; less toxic than the parent (44a) ([6]; relative to 44a): about 130 times; tumor growth in vivo ([10]; mouse studies, preliminary): inhibit tumor growth in vivo
6 | NCCCCNCCCCNCC1CCCCCCCCCCCCCC1 [Compound 47b, N^1-(4-aminobutyl)-N^4-(cyclopentadecylmethyl)butane-1,4-diamine] | 33.4 (±1.8) % | 29.6 | 47.8 | 48.7 | 40 | 45.5 |  |  |  | dramatic increase in anti-migration ability | > 60 | % Cell Migration ([2]; 40 μM (MTD of the conjugate), 48 h): 25.9 (±2.1) %; inhibition at 40 µM ([2]; Homo sapiens, L3.6pl, 40 μM (MTD of the conjugate), 48 h): 45.3%
